Results on 28 molecules are retold here after patent US11053251B2, “GPR35 modulators” (Prometheus Biosciences, Inc., priority 2019, dated 2021).

Where only a bound is given, the exact number is not on record here.

The target of the assay is Human GPR35 (Homo sapiens, UniProt Q9HC97, S294R). The assay can be described thus: Alternative Beta-Arrestin Assay (JumpIn 294R Tango U2OS cells, LiveBLAzer-FRET B/G). The format is cell-based. The note with it: for EC50: Human GPR35 expressing JumpIn 294R Tango U2OS cells, 5 hours treatment. The method, then:
Human GPR35 expressing JumpIn (Thermo Fisher) 294R Tango U2OS cells were plated in 384-well format in clear bottom plates at a cell density of 10,000 cells/well and allowed to grow overnight. The next day, cells were treated with serially diluted test compounds for 5 hours. LiveBLAzer-FRET B/G (CCF4-AM) detection reagents were then added and cells were allowed to incubate for 2 hours before reading plates on a BioTek Cytation 5 plate reader. Zaprinast was used as a positive control for dose-response curves. In order to determine EC50 values, data w ere fit to a four-parameter dose-response curves.

Usually EC50 stands for the concentration at which the effect is half-maximal. High values mean weaker potency, low ones greater potency.

Chain of Human GPR35 (Q9HC97 whole entry S294R): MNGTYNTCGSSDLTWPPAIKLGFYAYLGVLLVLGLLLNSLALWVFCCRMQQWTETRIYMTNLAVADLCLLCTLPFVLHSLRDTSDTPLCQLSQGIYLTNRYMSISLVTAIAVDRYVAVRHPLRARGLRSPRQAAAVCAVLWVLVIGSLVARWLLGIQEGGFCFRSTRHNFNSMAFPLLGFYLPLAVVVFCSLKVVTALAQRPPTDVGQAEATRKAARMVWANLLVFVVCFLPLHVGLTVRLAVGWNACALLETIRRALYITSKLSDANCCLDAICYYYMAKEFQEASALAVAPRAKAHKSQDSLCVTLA

In the case of `CCOc1cc(-c2cc(OCC(=O)OC)cc(C(=O)OC)c2)ccc1-c1nc2[nH]nnc2c(=O)[nH]1` [Compound 218, Methyl 3′-ethoxy-5-(2-methoxy-2-oxoethoxy)-4′-(7-oxo-6,7-dihydro-3H-[1,2,3]triazolo[4,5-d]pyrimidin-5-yl)-[1,1′-biphenyl]-3-carboxylate], the EC50 was ≤ 10 µM. On the same count and under the same terms, then `CCOc1cc(-c2cc(OCC(=O)O)cc(C(=O)O)c2)ccc1-c1nc2[nH]nnc2c(=O)[nH]1` [Compound 219, 5-(Carboxymethoxy)-3′-ethoxy-4′-(7-oxo-6,7-dihydro-3H-[1,2,3]triazolo[4,5-d]pyrimidin-5-yl)-[1,1′-biphenyl]-3-carboxylic acid], with ≤ 10 µM; and `CCOc1cc(-c2ccc(C(=O)O)c(OCC(=O)O)c2)ccc1-c1nc2[nH]nnc2c(=O)[nH]1` [Compound 220, 3-(Carboxymethoxy)-3′-ethoxy-4′-(7-oxo-6,7-dihydro-3H-[1,2,3]triazolo[4,5-d]pyrimidin-5-yl)-[1,1′-biphenyl]-4-carboxylic acid], with ≤ 10 µM. For the molecule `CCOc1cc(-c2ccc(OCc3ccc(OC)cc3)c(NCC(=O)OC(C)(C)C)c2)ccc1-c1nc2[nH]nnc2c(=O)[nH]1` [Compound 221, tert-butyl (3′-ethoxy-4-((4-methoxybenzyl)oxy)-4′-(7-oxo-6,7-dihydro-3H-[1,2,3]triazolo[4,5-d]pyrimidin-5-yl)-[1,1′-biphenyl]-3-yl)glycinate], the “% inhibition at 50 μM” value (Table 2) came out at 57% inhibition at.

With `CCOc1cc(-c2ccc(O)c(NCC(=O)O)c2)ccc1-c1nc2[nH]nnc2c(=O)[nH]1` [Compound 222, (3′-Ethoxy-4-hydroxy-4′-(7-oxo-6,7-dihydro-3H-[1,2,3]triazolo[4,5-d]pyrimidin-5-yl)-[1,1′-biphenyl]-3-yl)glycine], the EC50 is ≤ 10 µM. Still for that read-out and setting: then `CCOc1cc(-c2cc(O)cc(NCC(=O)O)c2)ccc1-c1nc2[nH]nnc2c(=O)[nH]1` [Compound 223, (3′-Ethoxy-5-hydroxy-4′-(7-oxo-6,7-dihydro-3H-[1,2,3]triazolo[4,5-d]pyrimidin-5-yl)-[1,1′-biphenyl]-3-yl)glycine], with ≤ 10 µM; and `CCOc1cc(-c2cccc(NC(C)(C)C(=O)O)c2)ccc1-c1nc2[nH]nnc2c(=O)[nH]1` [Compound 224, 2-((3′-Ethoxy-4′-(7-oxo-6,7-dihydro-3H-[1,2,3]triazolo[4,5-d]pyrimidin-5-yl)-[1,1′-biphenyl]-3-yl)amino)-2-methylpropanoic acid], with ≤ 10 µM. On the same count and under the same terms, under `O=C(O)CNc1cccc(-c2ccc(-c3nc4[nH]nnc4c(=O)[nH]3)c(OC3CCCC3)c2)c1` [Compound 225, (3′-(Cyclopentyloxy)-4′-(7-oxo-6,7-dihydro-3H-[1,2,3]triazolo[4,5-d]pyrimidin-5-yl)-[1,1′-biphenyl]-3-yl)glycine] stands ≤ 10 µM; under `CCOc1cc(-c2cccc(NCCC(=O)O)c2)ccc1-c1nc2[nH]nnc2c(=O)[nH]1` [Compound 226, 3-((3′-Ethoxy-4′-(7-oxo-6,7-dihydro-3H-[1,2,3]triazolo[4,5-d]pyrimidin-5-yl)-[1,1′-biphenyl]-3-yl)amino)propanoic acid], ≤ 10 µM. For the molecule `O=C(O)c1ccc(-c2ccc(-c3nc4[nH]nnc4c(=O)[nH]3)c(OCCN3CCCC3)c2)cc1` [Compound 227, 4′-(7-Oxo-6,7-dihydro-3H-[1,2,3]triazolo[4,5-d]pyrimidin-5-yl)-3′-(2-(pyrrolidin-1-yl)ethoxy)-[1,1′-biphenyl]-4-carboxylic acid], the “% inhibition at 50 μM” value (Table 2) is given as 66% inhibition at.

As for `CN(C)CCOc1cc(-c2ccc(C(=O)O)cc2)ccc1-c1nc2[nH]nnc2c(=O)[nH]1` [Compound 228, 3′-(2-(Dimethylamino)ethoxy)-4′-(7-oxo-6,7-dihydro-3H-[1,2,3]triazolo[4,5-d]pyrimidin-5-yl)-[1,1′-biphenyl]-4-carboxylic acid], the “% inhibition at 50 μM” value (Table 2) is recorded as 16% inhibition at. The molecule `CN(C)CCCOc1cc(-c2ccc(C(=O)O)cc2)ccc1-c1nc2[nH]nnc2c(=O)[nH]1` [Compound 229, 3′-(3-(Dimethylamino)propoxy)-4′-(7-oxo-6,7-dihydro-3H-[1,2,3]triazolo[4,5-d]pyrimidin-5-yl)-[1,1′-biphenyl]-4-carboxylic acid] came in with an EC50 of 10 to 50 µM.

For `O=C(O)CNc1cccc(-c2ccc(-c3nc4[nH]nnc4c(=O)[nH]3)c(OCCN3CCCC3)c2)c1` [Compound 230, (4′-(7-Oxo-6,7-dihydro-3H-[1,2,3]triazolo[4,5-d]pyrimidin-5-yl)-3′-(2-(pyrrolidin-1-yl)ethoxy)-[1,1′-biphenyl]-3-yl)glycine], the EC50 was 10 to 50 µM. Still for that read-out and setting: then `O=C(O)c1ccc(-c2ccc(-c3nc4[nH]nnc4c(=O)[nH]3)c(OC3CCCC3)c2)nc1` [Compound 231, 6-(3-(Cyclopentyloxy)-4-(7-oxo-6,7-dihydro-3H-[1,2,3]triazolo[4,5-d]pyrimidin-5-yl)phenyl)nicotinic acid], with ≤ 10 µM.

Regarding `CCOc1cc(-c2cccc(NC)c2)ccc1-c1nc2[nH]nnc2c(=O)[nH]1` [Compound 232, 5-(3-Ethoxy-3′-(methylamino)-[1,1′-biphenyl]-4-yl)-3,6-dihydro-7H-[1,2,3]triazolo[4,5-d]pyrimidin-7-one], the EC50 is ≤ 10 µM. For `O=C(O)c1ccc(-c2ccc(-c3nc4[nH]nnc4c(=O)[nH]3)c(OC3CCCC3)c2)cn1` [Compound 233, 5-(3-(Cyclopentyloxy)-4-(7-oxo-6,7-dihydro-3H-[1,2,3]triazolo[4,5-d]pyrimidin-5-yl)phenyl)picolinic acid], the EC50 is ≤ 10 µM.

`CCOc1cc(-c2cccc(CCC(=O)O)c2)ccc1-c1nc2[nH]nnc2c(=O)[nH]1` [Compound 234, 3-(3′-ethoxy-4′-(7-oxo-6,7-dihydro-3H-[1,2,3]triazolo[4,5-d]pyrimidin-5-yl)-[1,1′-biphenyl]-3-yl)propanoic acid]: the EC50 was ≤ 10 µM. Still for that read-out and setting: then `CCOc1cc(-c2cccc(/C=C/C(=O)O)c2)ccc1-c1nc2[nH]nnc2c(=O)[nH]1` [Compound 235, (E)-3-(3′-ethoxy-4′-(7-oxo-6,7-dihydro-3H-[1,2,3]triazolo[4,5-d]pyrimidin-5-yl)-[1,1′-biphenyl]-3-yl)acrylic acid], with ≤ 10 µM; and `CCOc1cc(-c2cccc(CC(C)C(=O)O)c2)ccc1-c1nc2[nH]nnc2c(=O)[nH]1` (stereo not shown) [Compound 238, 3-(3′-ethoxy-4′-(7-oxo-6,7-dihydro-3H-[1,2,3]triazolo[4,5-d]pyrimidin-5-yl)-[1,1′-biphenyl]-3-yl)-2-methylpropanoic acid], with ≤ 10 µM.

On to `CCOc1cc(-c2cccc(CC(CC)C(=O)O)c2)ccc1-c1nc2[nH]nnc2c(=O)[nH]1` (stereo not shown) [Compound 239, 2-((3′-ethoxy-4′-(7-oxo-6,7-dihydro-3H-[1,2,3]triazolo[4,5-d]pyrimidin-5-yl)-[1,1′-biphenyl]-3-yl)methyl)butanoic acid], for which the EC50 is ≤ 10 µM. With `CCOC(=O)C(C)(C)Cc1cccc(-c2ccc(-c3nc4[nH]nnc4c(=O)[nH]3)c(OCC)c2)c1` [Compound 242, ethyl 3-(3′-ethoxy-4′-(7-oxo-6,7-dihydro-3H-[1,2,3]triazolo[4,5-d]pyrimidin-5-yl)-[1,1′-biphenyl]-3-yl)-2,2-dimethylpropanoate], the “% inhibition at 5.6 μM” value (at 5.6 μM, Table 2) turned out to be 30% inhibition at.

In the case of `CCOc1cc(-c2cccc(CC(C)(C)C(=O)O)c2)ccc1-c1nc2[nH]nnc2c(=O)[nH]1` [Compound 243, 3-(3′-ethoxy-4′-(7-oxo-6,7-dihydro-3H-[1,2,3]triazolo[4,5-d]pyrimidin-5-yl)-[1,1′-biphenyl]-3-yl)-2,2-dimethylpropanoic acid], the concentration for a half-maximal effect (EC50) was ≤ 10 µM. Still for that read-out and setting: then `CCOc1cc(-c2cccc(CC3(C(=O)O)CC3)c2)ccc1-c1nc2[nH]nnc2c(=O)[nH]1` [Compound 244, 1-((3′-ethoxy-4′-(7-oxo-6,7-dihydro-3H-[1,2,3]triazolo[4,5-d]pyrimidin-5-yl)-[1,1′-biphenyl]-3-yl)methyl)cyclopropane-1-carboxylic acid], with ≤ 10 µM. As for `CCOC(=O)C1(Cc2cccc(-c3ccc(-c4nc5[nH]nnc5c(=O)[nH]4)c(OCC)c3)c2)CCC1` [Compound 245, ethyl 1-((3′-ethoxy-4′-(7-oxo-6,7-dihydro-3H-[1,2,3]triazolo[4,5-d]pyrimidin-5-yl)-[1,1′-biphenyl]-3-yl)methyl)cyclobutane-1-carboxylate], the “% inhibition at 50 μM” value (Table 2) was found to be 12% inhibition at.

Take `CCOc1cc(-c2cccc(CC3(C(=O)O)CCC3)c2)ccc1-c1nc2[nH]nnc2c(=O)[nH]1` [Compound 246, 1-((3′-ethoxy-4′-(7-oxo-6,7-dihydro-3H-[1,2,3]triazolo[4,5-d]pyrimidin-5-yl)-[1,1′-biphenyl]-3-yl)methyl)cyclobutane-1-carboxylic acid]: the EC50 is ≤ 10 µM.

`CCOc1cc(-c2cccc(OC(CC)C(=O)O)c2)ccc1-c1nc2[nH]nnc2c(=O)[nH]1` (stereo not shown) [Compound 247, 2-((3′-ethoxy-4′-(7-oxo-6,7-dihydro-3H-[1,2,3]triazolo[4,5-d]pyrimidin-5-yl)-[1,1′-biphenyl]-3-yl)oxy)butanoic acid]: the EC50 was ≤ 10 µM. Still for that read-out and setting: under `CCCC(Oc1cccc(-c2ccc(-c3nc4[nH]nnc4c(=O)[nH]3)c(OCC)c2)c1)C(=O)O` (stereo not shown) [Compound 248, 2-((3′-ethoxy-4′-(7-oxo-6,7-dihydro-3H-[1,2,3]triazolo[4,5-d]pyrimidin-5-yl)-[1,1′-biphenyl]-3-yl)oxy)pentanoic acid] stands ≤ 10 µM; under `CCOc1cc(-c2cccc(OC(C(=O)O)c3ccccc3)c2)ccc1-c1nc2[nH]nnc2c(=O)[nH]1` (stereo not shown) [Compound 249, 2-((3′-ethoxy-4′-(7-oxo-6,7-dihydro-3H-[1,2,3]triazolo[4,5-d]pyrimidin-5-yl)-[1,1′-biphenyl]-3-yl)oxy)-2-phenylacetic acid], ≤ 10 µM.
